The subject of assay [1] is phosphorylation of ERK (Thr202/Tyr204). Kind of assay: ERK phosphorylation inhibitory activity, cell ELISA, PA-TU-8902. The assay is classed as cell-based. As to conditions: Homo sapiens, PaTu 8902; PA-TU-8902 cells, 24 hours, 100% = 300 nM trametinib; read-out: IC50 (ERK phosphorylation inhibition). As to the method:
Test Example 2: Evaluation of ERK Phosphorylation Inhibitory Activity on Human KRAS G12V Mutant-Positive Pancreatic Cancer Line PA-TU-8902
The ERK phosphorylation inhibitory activities of subject compounds were evaluated by measuring phosphorylation of the 202th threonine (Thr202) and the 204th tyrosine (Tyr204) of ERK located downstream of the KRAS signal by cell ELISA.
PA-TU-8902 cells were seeded at 36 µL/well on a 384-well plate (from Greiner bio-one) to give 5.0×10^3 cells per well. The cell culture conditions were the same conditions as in Test Example 1-1.
The next day, the subject compounds (9 points having final concentrations in the range of 3 μM to 0.3 nM), trametinib (MEK inhibitor) of a final concentration of 300 nM as a positive control and DMSO, which was the solvent for the subject compounds, as a negative control were diluted 100-fold with a fresh medium and were each added at 4 μL per well, followed by culturing for 24 hours. After culturing, a 30% glyoxal solution (40% glyoxal [from Nacalai Tesque] was diluted with PBS) was quickly added at 30 μL per well, and the plate was allowed to stand for an hour and 30 minutes at room temperature to thus immobilize the cells. Then, the plate was centrifuged (110×g, seven seconds, hereinafter centrifugation was performed under the same conditions unless otherwise specified) to remove the supernatant, and 0.1% Triton X-100-containing PBS was added at 20 μL per well. After allowing the plate to stand for 10 minutes at room temperature, the supernatant was removed by centrifugation, and the same operation was further repeated. Next, 0.5% SDS-containing PBS was added at 20 μL per well. The plate was allowed to stand at room temperature for 30 minutes and was then centrifuged to remove the supernatant. Subsequently, a blocking solution (Intercept Blocking Buffer) was added at 20 μL per well, and the plate was allowed to stand for an hour at room temperature. The supernatant was removed by centrifugation, and an ERK (Thr202/Tyr204) phosphorylation antibody (Phospho-p44/42 MAPK (Erk 1/2) (Thr202/Tyr204) (D13.14.4E) XP Rabbit mAb; from Cell Signaling Technology) diluted 2,500-fold with the blocking solution was added at 15 μL per well as a primary antibody. The plate was allowed to stand at 4° C. overnight.
The next day, the plate was centrifuged to remove the supernatant, and 0.05% Tween-20-containing PBS (from Thermo Scientific; 20×PBS Tween-20 was diluted 20-fold with ion exchange water and used) was added at 50 μL per well. The supernatant was removed by centrifugation to thus wash each well. The washing was performed three times in total. After washing, an anti-rabbit IgG antibody diluted 1,000-fold with the blocking solution was added at 15 μL per well as a secondary antibody, and the plate was allowed to stand for an hour at room temperature. The plate was centrifuged to remove the supernatant, and each well was washed three times with 0.05% Tween-20-containing PBS in the same manner as after the primary antibody reaction. Centrifugation after the third washing was performed at 171×g for 17 seconds. After removing the supernatant, the plate was dried as it was with air at room temperature for three hours or more, and the 800-nm fluorescent signals were measured with Aerius.
With the signaling value at the time of addition of DMSO taken as 0% inhibition and with the signaling value at the time of addition of 300 nM trametinib taken as 100% inhibition, the 50% inhibition values (IC50) were calculated by Sigmoid-Emax model nonlinear regression analysis.
Background: An ELISA detects its analyte on a solid surface through an enzyme-linked reagent.

In a further assay the target is T1, RAS G12D (Homo sapiens, UniProt P01116, G12D).
T1 construct: host or cells: AsPC-1 human pancreatic cancer cells
Briefly: RAS G12D degradation activity, Cell ELISA, AsPC-1. In kind it is cell-based. The settings on record: AsPC-1 cells, 24 hours; read-out: DC50 (RAS G12D 50% degradation value). The procedure:
Test Example 1-2: Evaluation of RAS G12D Degradation Activity on Human KRAS G12D Mutant-Positive Pancreatic Cancer Line AsPC-1
The RAS G12D degradation activities of subject compounds were evaluated in the same manner as in Test Example 1-1 by measuring the expression levels of RAS G12D by a Cell ELISA method.
AsPC-1 cells (ATCC, CRL-1682) were seeded at 36 μL per well on a 384-well plate to give 2.0×10^4 cells per well. As for the cell culture conditions, RPMI-1640 medium (from Sigma-Aldrich) containing 10% fetal bovine serum was used in the presence of 5% CO2 at 37° C.
The next day, the subject compounds (10 points having final concentrations in the range of 3 μM to 0.1 nM) and DMSO, which was the solvent for the subject compounds, as a negative control were diluted 100-fold with a fresh medium and were each added at 4 μL per well, followed by culturing for 24 hours.
The next day, the procedures from the immobilization of the cells to before the addition of the blocking solution were performed by the same methods as in Test Example 1-1. A blocking solution (Intercept Blocking Buffer; from LI-COR Biosciences) was added at 20 μL per well. After allowing the plate to stand for 30 minutes at room temperature, the supernatant was removed by centrifugation. A solution obtained by diluting an anti-R-actin antibody (1,000-fold dilution) with the blocking solution was added to the wells of the positive control as a primary antibody, and a solution obtained by diluting an anti-Ras (G12D Mutant Specific) antibody (Ras (G12D Mutant Specific) (D8H7) Rabbit mAb; from Cell Signaling Technology; 1,000-fold dilution) and an anti-3-actin antibody (1,000-fold dilution) with the blocking solution was added to the other wells as primary antibodies, each at 15 μL per well. The plate was allowed to stand overnight at 4° C.
The next day, the supernatant was removed by centrifugation, and the plate was washed with PBS. The supernatant was removed by centrifugation, and a solution obtained by diluting an anti-rabbit IgG antibody and an anti-mouse IgG antibody 1,000-fold with the blocking solution was added at 15 μL per well as secondary antibodies. After allowing the plate to stand at room temperature for an hour, the supernatant was removed by centrifugation, and the plate was washed with PBS. After removing the supernatant, the plate was dried as it was with air at room temperature for two hours or more, and the 700-nm and 800-nm fluorescent signals were measured with Aerius.
With the RAS G12D signaling value at the time of addition of DMSO corrected with the signaling value of β-actin taken as 0% and with the RAS G12D signaling value under the conditions of staining with the anti-β-actin antibody alone taken as 100%, the RAS G12D degradation rates were calculated. The 50% degradation values (DC50) were calculated by Sigmoid-Emax model nonlinear regression analysis.

T1 sequence (P01116 1-188 isoform P01116-2 G12D): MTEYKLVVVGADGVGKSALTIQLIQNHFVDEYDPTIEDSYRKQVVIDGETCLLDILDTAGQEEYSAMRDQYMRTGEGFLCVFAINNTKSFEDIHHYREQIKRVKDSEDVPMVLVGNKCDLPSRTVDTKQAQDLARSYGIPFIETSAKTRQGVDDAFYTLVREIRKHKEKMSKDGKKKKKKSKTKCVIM

Usually IC50 stands for the midpoint of a concentration-inhibition curve. As usually defined, the DC50 is the concentration at which degradation of the target reaches its halfway point. Turning to `CO[C@@H](C)COc1cc(OC2CN(C(=O)NCCN(C)C)C2)c2cc(C3CC3)c(-c3c(C)c(F)cc4[nH]ncc34)c(OCc3ccc(-c4cn([C@H](C(=O)N5C[C@H](O)C[C@H]5C(=O)N[C@@H](CO)c5ccc(-n6cncn6)cc5)C(C)C)nn4)cc3)c2n1` (atropisomer, axis not shown; (M)) [Example 12, (4R)-1-[(2S)-2-(4-{4-[({(7M)-6-cyclopropyl-4-[(1-{[2-(dimethylamino)ethyl]carbamoyl}azetidin-3-yl)oxy]-7-(6-fluoro-5-methyl-1H-indazol-4-yl)-2-[(2S)-2-methoxypropoxy]quinolin-8-yl}oxy)methyl]phenyl}-1H-1,2,3-triazol-1-yl)-3-methylbutanoyl]-4-hydroxy-N-{(1R)-2-hydroxy-1-[4-(1H-1,2,4-triazol-1-yl)phenyl]ethyl}-L-prolinamide], the IC50 in assay [1] turned out to be 18 nM. On RAS G12D, the DC50 came to 3 nM.
The corresponding values for `CO[C@@H](C)COc1cc(OC2CN(C(=O)O[C@H]3C[C@@H](N(C)C)C3)C2)c2cc(C3CC3)c(-c3c(C)c(F)cc4[nH]ncc34)c(OCc3ccc(-c4cn([C@H](C(=O)N5C[C@H](O)C[C@H]5C(=O)N[C@@H](CO)c5ccc(-n6cncn6)cc5)C(C)C)nn4)cc3)c2n1` (atropisomer, axis not shown; (M)) [Example 13, (1s,3R)-3-(dimethylamino)cyclobutyl 3-({(7M)-6-cyclopropyl-7-(6-fluoro-5-methyl-1H-indazol-4-yl)-8-{[4-(1-{(2S)-1-[(2S,4R)-4-hydroxy-2-({(1R)-2-hydroxy-1-[4-(1H-1,2,4-triazol-1-yl)phenyl]ethyl}carbamoyl)pyrrolidin-1-yl]-3-methyl-1-oxobutan-2-yl}-1H-1,2,3-triazol-4-yl)phenyl]methoxy}-2-[(2S)-2-methoxypropoxy]quinolin-4-yl}oxy)azetidine-1-carboxylate] are 9 nM and 6 nM.
The like results for `CO[C@@H](C)COc1cc(OC2CN(C(=O)N3CC(CN(C)C)C3)C2)c2cc(C3CC3)c(-c3c(C)c(F)cc4[nH]ncc34)c(OCc3ccc(-c4cn([C@H](C(=O)N5C[C@H](O)C[C@H]5C(=O)N[C@@H](CO)c5ccc(-c6scnc6C)cc5)C(C)C)nn4)cc3)c2n1` (atropisomer, axis not shown; (M)) [Example 14, (4R)-1-[(2S)-2-(4-{4-[({(7M)-6-cyclopropyl-4-[(1-{3-[(dimethylamino)methyl]azetidine-1-carbonyl}azetidin-3-yl)oxy]-7-(6-fluoro-5-methyl-1H-indazol-4-yl)-2-[(2S)-2-methoxypropoxy]quinolin-8-yl}oxy)methyl]phenyl}-1H-1,2,3-triazol-1-yl)-3-methylbutanoyl]-4-hydroxy-N-{(1R)-2-hydroxy-1-[4-(4-methyl-1,3-thiazol-5-yl)phenyl]ethyl}-L-prolinamide] were, in that order, 10 nM and 2 nM.
Consider `CO[C@@H](C)COc1cc(OC2CN(C(=O)CCCN(C)C)C2)c2cc(C3CC3)c(-c3c(C)c(F)cc4[nH]ncc34)c(OCc3ccc(-c4cn([C@H](C(=O)N5C[C@H](O)C[C@H]5C(=O)N[C@@H](CO)c5ccc(-n6cncn6)cc5)C(C)C)nn4)cc3)c2n1` (atropisomer, axis not shown; (M)) [Example 41, (4R)-1-[(2S)-2-(4-{4-[({(7M)-6-cyclopropyl-4-({1-[4-(dimethylamino)butanoyl]azetidin-3-yl}oxy)-7-(6-fluoro-5-methyl-1H-indazol-4-yl)-2-[(2S)-2-methoxypropoxy]quinolin-8-yl}oxy)methyl]phenyl}-1H-1,2,3-triazol-1-yl)-3-methylbutanoyl]-4-hydroxy-N-{(1R)-2-hydroxy-1-[4-(1H-1,2,4-triazol-1-yl)phenyl]ethyl}-L-prolinamide], for which the IC50 in assay [1] was 24 nM. In addition, the DC50 on RAS G12D came to 3 nM.
The like results for `Cc1ncsc1-c1ccc([C@H](CO)NC(=O)[C@@H]2C[C@@H](O)CN2C(=O)[C@H](C(C)C)n2cc(-c3ccc(COc4c(-c5c(C)c(F)cc6[nH]ncc56)c(C5CC5)cc5c(NC6CN(c7ncccn7)C6)nc(OC6CCOCC6)nc45)cc3)nn2)cc1` [Example 15, (4R)-1-[(2S)-2-{4-[4-({[(7M)-6-cyclopropyl-7-(6-fluoro-5-methyl-1H-indazol-4-yl)-2-[(oxan-4-yl)oxy]-4-{[1-(pyrimidin-2-yl)azetidin-3-yl]amino}quinazolin-8-yl]oxy}methyl)phenyl]-1H-1,2,3-triazol-1-yl}-3-methylbutanoyl]-4-hydroxy-N-{(1R)-2-hydroxy-1-[4-(4-methyl-1,3-thiazol-5-yl)phenyl]ethyl}-L-prolinamide] were, in that order, 42 nM and 146 nM.
With `Cc1ncsc1-c1ccc([C@H](CO)NC(=O)[C@@H]2C[C@@H](O)CN2C(=O)[C@H](C(C)C)n2cc(-c3ccc(COc4c(-c5c(C)c(F)cc6[nH]ncc56)c(C5CC5)cc5c(NCc6cccnc6)nc(OC6CCOCC6)nc45)cc3)nn2)cc1` [Example 29], the IC50 in assay [1] was found to be 15 nM. The DC50 at RAS G12D is 21 nM.
With `Cc1ncsc1-c1ccc([C@H](CO)NC(=O)[C@@H]2C[C@@H](O)CN2C(=O)[C@H](C(C)C)n2cc(-c3ccc(COc4c(-c5c(C)c(F)cc6[nH]ncc56)c(C5CC5)cc5c(N6CC[C@H]6C(N)=O)nc(OC6CCOCC6)nc45)cc3)nn2)cc1` [Example 35], the IC50 in assay [1] came to 11 nM. Moreover, on RAS G12D, the DC50 was 16 nM.

These data come from patent US20260049072A1, “HETEROCYCLIC COMPOUND FOR INDUCING DEGRADATION OF MUTANT KRAS PROTEIN” (Astellas Pharma Inc., priority 2022, published 2026).
